Test results published in patent US12478605B2, “Biochanin a derivatives for treatment of BEST1-related retinopathies” (Universität Regensburg, priority 2020, dated 2025).
Residue numbers refer to the chain shown, from its start.

Key:
Type in all cases: cell-based
[1] = target: T1, mutant BEST1 R218C (Homo sapiens, UniProt O76090, R218C); assay: YFP-based I- efflux assay in MDCKII cells co-expressing YFP and mutant BEST1 R218C; conditions: 5 μM, compound addition for 24 h, FIGS. 6-8
T1 construct: expressed in transfected cells
T1 sequence (O76090 1-585 R218C): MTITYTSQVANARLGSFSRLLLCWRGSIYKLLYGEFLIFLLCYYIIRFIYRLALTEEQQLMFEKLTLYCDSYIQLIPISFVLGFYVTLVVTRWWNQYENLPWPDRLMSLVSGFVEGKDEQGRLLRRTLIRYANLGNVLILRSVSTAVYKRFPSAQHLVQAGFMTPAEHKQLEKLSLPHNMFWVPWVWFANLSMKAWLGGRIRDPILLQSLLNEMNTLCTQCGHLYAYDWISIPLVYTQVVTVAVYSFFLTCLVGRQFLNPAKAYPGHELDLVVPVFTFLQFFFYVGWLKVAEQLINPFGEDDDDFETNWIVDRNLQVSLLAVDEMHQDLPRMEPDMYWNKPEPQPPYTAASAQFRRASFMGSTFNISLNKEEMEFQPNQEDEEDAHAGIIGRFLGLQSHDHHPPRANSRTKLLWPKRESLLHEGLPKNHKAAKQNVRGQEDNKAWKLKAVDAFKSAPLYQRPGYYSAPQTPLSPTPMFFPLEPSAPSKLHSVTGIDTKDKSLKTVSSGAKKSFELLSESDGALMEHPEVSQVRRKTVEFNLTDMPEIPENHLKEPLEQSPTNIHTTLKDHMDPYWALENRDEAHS
Description: MDCKII cells co-expressing yellow fluorescence protein (YFP) and mutant BEST1 R218C were seeded on black 96-well plates and cultivated for 6 days to achieve polarity, a crucial requirement for correct basolateral localization of BEST1 in epithelial cells. Compounds were tested at 5 μM concentration in a 96-well format. After compound addition for 24 h, cells were subjected to an outwardly directed iodid (I^−)-gradient to drive BEST1-mediated I^− efflux and produce increasing fluorescence signals. Each assay consisted of recording of YFP quenching after I^− pre-incubation for 6 min (=100% value), followed by 7 min of recording of increasing fluorescence after addition of the chloride (Cr) containing solution. Changes of fluorescence intensities were monitored on a plate reader. The effect on the kinetics of I— efflux was tested for Biochanin A (FIG. 6A), Trimethoxyisoflavone (FIG. 6B), 5,4-dimethoxy hydroxyisoflavone (FIG. 6C), Biochanin A-7-methyl ether (FIG. 6D), Biochanin A-7-acetate (FIG. 6E), Biochanin A diacetate (FIG. 6F), Biochanin A-7-pentanoate (FIG. 6G), Biochanin A dipentanoate (FIG. 6H), Biochanin A-7-pivalate (FIG. 7A), Biochanin A-dipavalate (FIG. 7B), Biochanin A-7-acrylate (FIG. 7C), Biochanin A diacrylate (FIG. 7D), Biochanin A-7-methyl fumarate (FIG. 7E), Biochanin A-di(methyl fumarate) (FIG. 7F), Biochanin A-7-butylcarbamate (FIG. 7G), Biochanin A di(butylcarbamate) (FIG. 7H), Biochanin A-7-phosphate disodium salt (FIG. 8A), Biochanin A-7-isopropylate (FIG. 8B), 7-pivaloxymethyl-Biochanin A (FIG. 8C), Biochanin A diisopropylate (FIG. 8D), Biochanin A-7-isopropyl carbonate (FIG. 8E), Biochanin A diisopropyl carbonate (FIG. 8F), Isopropyloxycarbonylmethoxy-Biochanin A (FIG. 8G).

[2] = target: T1, mutant BEST1 R218C; assay: YFP-halide transport assay (I- influx), MDCKII cells expressing mutant BEST1-R218C
Description: Human hiPSC-RPE or MDCKII cells were transduced via lentivirus particles which were produced by co-transfecting HEK293T cells with the yellow fluorescence protein (YFPH148Q/I152L)-pLJM1 and helper plasmids pMD2.G and psPAX2 using the Ca^2+ phospate transfection method. After six weeks of cultivation in 96-well black microtiter plates, cells were incubated with 100 mM Cl^− containing solution and basal YFP fluorescence was measured in a Tecan microplate reader. Subsequently Cl^− was replaced with equimolar I^− and decrease of YFP fluorescence intensity was monitored for another 2 min in 10 sec intervals.
To analyze BEST1-mediated anion transport in the cell lines generated in the previous examples, a well-established halide transport assay (Galietta et al., 2001) was adapted. […] Addition of I— leads to specific YFP quenching over time and changes of fluorescence intensities can be monitored on a plate reader. MDCKII cells were incubated with 100 mM Cl— containing solution and steady state YFP fluorescence signal intensities were measured after 6 minutes. Subsequently, Cl— was replaced by equimolar I— and anion permeability was monitored by decreasing YFP intensities as a result of BEST1-mediated I— influx in a time course up to 2 minutes (FIG. 2B). For several independent BEST1 wildtype cell lines a fast kinetic of decreasing fluorescence intensities to ˜30 to 40% was observed while the untransfected control cell lines remained flat (FIGS. 2C and D).
Example 8—Evaluation of BioA(C2H3O2)2 activity in MDCKII cells MDCKII cells co-expressing YFP and BEST1 wildtype or mutant p.(R218C) were seeded on black 96-well plates and cultivated for 6 days to achieve polarity, a requirement for correct basolateral localization of BEST1 in epithelial cells. Compounds were tested separately at 10 μM concentration in a 96-well format. After compound addition for 24 h, cells were subjected to an inwardly directed I— gradient to drive I— influx and produce decreasing (quenched) fluorescence signals. […]

[3] = target: T2, BEST-Y227N (Homo sapiens, UniProt O76090, Y227N); assay: YFP-halide transport assay (I- influx), MDCKII cells expressing mutant BEST-Y227N; conditions: various concentrations from 2 μM to 20 μM, 24 h, FIG. 4C
T2 construct: expressed in transfected cells
T2 sequence (O76090 1-585 Y227N): T1 sequence (O76090 1-585 R218C) with C218R, Y227N

- anion transport activity (kinetics of I- efflux) in comparison to untreated cells [1]: strongly increased
- effect on BEST1 anion transport activity ([2]; MDCKII cells, FIG. 4A, comparison of Biochanin A derivatives): greatest effect
- anion transport activity (I- influx) ([2]; MDCKII mutant BEST1-R218C, various concentrations from 2 μM to 20 μM, 24 h, FIG. 4C): strongly
- anion transport activity (I- influx) [3]: moderately increased
Structure (SMILES): COc1ccc(-c2coc3cc(OC(C)=O)cc(OC(C)=O)c3c2=O)cc1 [Biochanin A diacetate, 3-(4-Methoxyphenyl)-4oxo-4H-chromene-5,7-diyl diacetate]
